From the NIST ThermoML archive (doi:10.1016/j.jct.2019.01.021)
Several values for one entry are separate records, joined by “and”; a condition that tells them apart may be missing. Identical values can stand only once.

Experiment: molar heat capacity at constant pressure
Conditions: 101.33 kPa, Small (less than 1 g) adiabatic calorimetry

N.NS(=O)(=O)O [ammonium sulfamate]
Conditions	molar heat capacity at constant pressure
187.31 K, Crystal 2	118.02 J/K/mol
188.37 K, Crystal 2	118.34 J/K/mol
189.42 K, Crystal 2	118.66 J/K/mol
190 K, Crystal 2	119.06 J/K/mol
190.47 K, Crystal 2	118.99 J/K/mol
191.52 K, Crystal 2	119.43 J/K/mol
192.57 K, Crystal 2	119.89 J/K/mol
193.62 K, Crystal 2	120.26 J/K/mol
194.67 K, Crystal 2	120.69 J/K/mol
195.72 K, Crystal 2	121.06 J/K/mol
196.77 K, Crystal 2	121.57 J/K/mol
197.82 K, Crystal 2	122.07 J/K/mol
198.87 K, Crystal 2	122.46 J/K/mol
199.92 K, Crystal 2	122.56 J/K/mol
200 K, Crystal 2	122.64 J/K/mol
200.85 K, Crystal 2	122.86 J/K/mol
201.65 K, Crystal 2	123.16 J/K/mol
202.45 K, Crystal 2	123.44 J/K/mol
203.24 K, Crystal 2	123.74 J/K/mol
204.05 K, Crystal 2	123.89 J/K/mol
204.85 K, Crystal 2	124.1 J/K/mol
205.65 K, Crystal 2	124.38 J/K/mol
206.45 K, Crystal 2	124.7 J/K/mol
207.25 K, Crystal 2	124.92 J/K/mol
208.05 K, Crystal 2	125.1 J/K/mol
208.86 K, Crystal 2	125.38 J/K/mol
209.66 K, Crystal 2	125.69 J/K/mol
210 K, Crystal 2	125.96 J/K/mol
210.46 K, Crystal 2	125.83 J/K/mol
211.26 K, Crystal 2	126.04 J/K/mol
212.07 K, Crystal 2	126.32 J/K/mol
212.87 K, Crystal 2	126.64 J/K/mol
213.68 K, Crystal 2	127 J/K/mol
214.48 K, Crystal 2	127.38 J/K/mol
215.28 K, Crystal 2	127.75 J/K/mol
216.09 K, Crystal 2	127.78 J/K/mol
216.9 K, Crystal 2	127.98 J/K/mol
217.7 K, Crystal 2	128.19 J/K/mol
218.51 K, Crystal 2	128.52 J/K/mol
219.31 K, Crystal 2	128.78 J/K/mol
220 K, Crystal 2	129.21 J/K/mol
220.12 K, Crystal 2	129.04 J/K/mol
220.93 K, Crystal 2	129.3 J/K/mol
221.73 K, Crystal 2	129.49 J/K/mol
222.54 K, Crystal 2	129.74 J/K/mol
223.35 K, Crystal 2	130.02 J/K/mol
224.16 K, Crystal 2	130.26 J/K/mol
224.97 K, Crystal 2	130.53 J/K/mol
225.78 K, Crystal 2	130.71 J/K/mol
226.59 K, Crystal 2	130.98 J/K/mol
227.4 K, Crystal 2	131.32 J/K/mol
228.21 K, Crystal 2	131.61 J/K/mol
229.02 K, Crystal 2	131.83 J/K/mol
229.83 K, Crystal 2	132.08 J/K/mol
230 K, Crystal 2	132.37 J/K/mol
230.64 K, Crystal 2	132.31 J/K/mol
231.45 K, Crystal 2	132.78 J/K/mol
232.27 K, Crystal 2	133.46 J/K/mol
233.08 K, Crystal 2	133.22 J/K/mol
233.89 K, Crystal 2	133.51 J/K/mol
234.71 K, Crystal 2	133.83 J/K/mol
235.52 K, Crystal 2	134.25 J/K/mol
236.33 K, Crystal 2	134.61 J/K/mol
237.15 K, Crystal 2	134.97 J/K/mol
237.96 K, Crystal 2	135.18 J/K/mol
238.78 K, Crystal 2	135.77 J/K/mol
239.59 K, Crystal 2	135.43 J/K/mol
240 K, Crystal 2	135.44 J/K/mol
240.41 K, Crystal 2	136.44 J/K/mol
241.22 K, Crystal 2	136.59 J/K/mol
242.04 K, Crystal 2	136.32 J/K/mol
242.86 K, Crystal 2	137.27 J/K/mol
243.68 K, Crystal 2	137.4 J/K/mol
244.44 K, Crystal 2	137.03 J/K/mol
244.5 K, Crystal 2	136.97 J/K/mol
244.81 K, Crystal 2	137.21 J/K/mol
244.94 K, Crystal 2	137.26 J/K/mol
245.31 K, Crystal 2	136.68 J/K/mol
245.38 K, Crystal 2	137.26 J/K/mol
245.44 K, Crystal 2	137.55 J/K/mol
245.94 K, Crystal 2	137.54 J/K/mol
245.96 K, Crystal 2	137.42 J/K/mol
246.13 K, Crystal 2	137.45 J/K/mol
246.46 K, Crystal 2	137.69 J/K/mol
246.53 K, Crystal 2	137.6 J/K/mol
246.95 K, Crystal 2	137.65 J/K/mol
246.96 K, Crystal 2	137.71 J/K/mol
247.11 K, Crystal 2	137.65 J/K/mol
247.46 K, Crystal 2	137.8 J/K/mol
247.68 K, Crystal 2	138 J/K/mol
247.77 K, Crystal 2	137.93 J/K/mol
247.97 K, Crystal 2	138.06 J/K/mol
248.25 K, Crystal 2	138.01 J/K/mol
248.47 K, Crystal 2	138.27 J/K/mol
248.59 K, Crystal 2	138.16 J/K/mol
248.83 K, Crystal 2	138.31 J/K/mol
248.98 K, Crystal 2	138.36 J/K/mol
249.41 K, Crystal 2	138.87 J/K/mol
249.42 K, Crystal 2	138.7 J/K/mol
249.48 K, Crystal 2	138.72 J/K/mol
249.98 K, Crystal 2	139.15 J/K/mol and 138.93 J/K/mol
250.24 K, Crystal 2	139.23 J/K/mol
250.49 K, Crystal 2	139.26 J/K/mol
250.56 K, Crystal 2	139.43 J/K/mol
250.99 K, Crystal 2	139.62 J/K/mol
251.06 K, Crystal 2	139.79 J/K/mol
251.14 K, Crystal 2	139.9 J/K/mol
251.5 K, Crystal 2	140.25 J/K/mol
251.71 K, Crystal 2	140.3 J/K/mol
251.88 K, Crystal 2	140.46 J/K/mol
252 K, Crystal 2	140.41 J/K/mol
252.28 K, Crystal 2	140.89 J/K/mol
252.51 K, Crystal 2	140.56 J/K/mol
252.7 K, Crystal 2	140.98 J/K/mol
252.86 K, Crystal 2	141.23 J/K/mol
253.02 K, Crystal 2	141.02 J/K/mol
253.43 K, Crystal 2	141.89 J/K/mol
253.52 K, Crystal 2	141.72 J/K/mol and 141.4 J/K/mol
254.01 K, Crystal 2	143.16 J/K/mol
254.03 K, Crystal 2	142.77 J/K/mol
254.34 K, Crystal 2	145.58 J/K/mol
254.54 K, Crystal 1	146.89 J/K/mol
254.58 K, Crystal 1	148.65 J/K/mol
255.05 K, Crystal 1	140.26 J/K/mol
255.16 K, Crystal 1	140.01 J/K/mol
255.17 K, Crystal 1	141.54 J/K/mol
255.56 K, Crystal 1	139.82 J/K/mol
255.74 K, Crystal 1	139.92 J/K/mol
256 K, Crystal 1	139.89 J/K/mol
256.07 K, Crystal 1	140.15 J/K/mol
256.32 K, Crystal 1	140.33 J/K/mol
256.58 K, Crystal 1	140.36 J/K/mol
256.83 K, Crystal 1	140.15 J/K/mol
256.9 K, Crystal 1	140.4 J/K/mol
257.09 K, Crystal 1	140.26 J/K/mol
257.48 K, Crystal 1	140.61 J/K/mol
257.6 K, Crystal 1	140.56 J/K/mol
257.65 K, Crystal 1	140.39 J/K/mol
258.06 K, Crystal 1	140.66 J/K/mol
258.1 K, Crystal 1	140.61 J/K/mol
258.48 K, Crystal 1	140.51 J/K/mol
258.61 K, Crystal 1	140.63 J/K/mol
258.65 K, Crystal 1	140.92 J/K/mol
259.12 K, Crystal 1	140.78 J/K/mol
259.23 K, Crystal 1	140.91 J/K/mol
259.3 K, Crystal 1	140.91 J/K/mol
259.63 K, Crystal 1	141.01 J/K/mol
259.81 K, Crystal 1	141.1 J/K/mol
260 K, Crystal 1	141.26 J/K/mol
260.12 K, Crystal 1	141.07 J/K/mol
260.15 K, Crystal 1	141.06 J/K/mol
260.39 K, Crystal 1	141.17 J/K/mol
260.66 K, Crystal 1	141.25 J/K/mol
260.95 K, Crystal 1	141.34 J/K/mol
260.97 K, Crystal 1	141.54 J/K/mol
261.17 K, Crystal 1	141.38 J/K/mol
261.55 K, Crystal 1	141.5 J/K/mol
261.68 K, Crystal 1	141.47 J/K/mol
261.77 K, Crystal 1	141.54 J/K/mol
262.13 K, Crystal 1	141.71 J/K/mol
262.19 K, Crystal 1	141.78 J/K/mol
262.61 K, Crystal 1	141.89 J/K/mol
262.71 K, Crystal 1	141.89 J/K/mol
262.73 K, Crystal 1	141.96 J/K/mol
263.3 K, Crystal 1	141.95 J/K/mol
263.44 K, Crystal 1	142.09 J/K/mol
264.27 K, Crystal 1	142.38 J/K/mol
265.1 K, Crystal 1	142.55 J/K/mol
265.93 K, Crystal 1	142.78 J/K/mol
266.76 K, Crystal 1	143.13 J/K/mol
267.59 K, Crystal 1	143.22 J/K/mol
268.42 K, Crystal 1	143.39 J/K/mol
269.25 K, Crystal 1	143.62 J/K/mol
270 K, Crystal 1	144.09 J/K/mol
270.08 K, Crystal 1	143.91 J/K/mol
270.91 K, Crystal 1	144.17 J/K/mol
271.74 K, Crystal 1	144.43 J/K/mol
272.58 K, Crystal 1	144.63 J/K/mol
273.41 K, Crystal 1	144.84 J/K/mol
274.25 K, Crystal 1	145.06 J/K/mol
275.08 K, Crystal 1	145.36 J/K/mol
275.94 K, Crystal 1	145.56 J/K/mol
276.77 K, Crystal 1	145.78 J/K/mol
277.6 K, Crystal 1	145.99 J/K/mol
278.44 K, Crystal 1	146.2 J/K/mol
279.28 K, Crystal 1	146.42 J/K/mol
280 K, Crystal 1	146.75 J/K/mol
280.11 K, Crystal 1	146.67 J/K/mol
280.95 K, Crystal 1	147.01 J/K/mol
281.79 K, Crystal 1	147.27 J/K/mol
282.63 K, Crystal 1	147.37 J/K/mol
283.47 K, Crystal 1	147.57 J/K/mol
284.3 K, Crystal 1	147.9 J/K/mol
285.15 K, Crystal 1	148.03 J/K/mol
285.99 K, Crystal 1	148.24 J/K/mol
286.83 K, Crystal 1	148.69 J/K/mol
287.67 K, Crystal 1	148.8 J/K/mol
288.49 K, Crystal 1	148.98 J/K/mol
289.33 K, Crystal 1	149.33 J/K/mol
290 K, Crystal 1	149.41 J/K/mol
290.17 K, Crystal 1	149.55 J/K/mol
291.01 K, Crystal 1	149.81 J/K/mol
291.85 K, Crystal 1	149.83 J/K/mol
292.69 K, Crystal 1	150.13 J/K/mol
293.53 K, Crystal 1	150.52 J/K/mol
294.38 K, Crystal 1	150.46 J/K/mol
295.22 K, Crystal 1	150.72 J/K/mol
296.07 K, Crystal 1	150.87 J/K/mol
296.92 K, Crystal 1	151.22 J/K/mol
297.77 K, Crystal 1	151.31 J/K/mol
298.15 K, Crystal 1	151.49 J/K/mol
298.61 K, Crystal 1	151.62 J/K/mol
299.46 K, Crystal 1	152.1 J/K/mol
300 K, Crystal 1	151.99 J/K/mol
300.74 K, Crystal 1	152.16 J/K/mol
302.38 K, Crystal 1	152.51 J/K/mol
304 K, Crystal 1	152.9 J/K/mol
305.63 K, Crystal 1	153.27 J/K/mol
307.25 K, Crystal 1	153.72 J/K/mol
308.87 K, Crystal 1	154.08 J/K/mol
310 K, Crystal 1	154.4 J/K/mol
310.45 K, Crystal 1	154.47 J/K/mol
312.03 K, Crystal 1	154.86 J/K/mol
313.62 K, Crystal 1	155.15 J/K/mol
315.2 K, Crystal 1	155.56 J/K/mol
316.77 K, Crystal 1	155.95 J/K/mol
318.35 K, Crystal 1	156.34 J/K/mol
319.87 K, Crystal 1	156.72 J/K/mol
320 K, Crystal 1	156.81 J/K/mol
321.41 K, Crystal 1	157.11 J/K/mol
322.95 K, Crystal 1	157.43 J/K/mol
324.49 K, Crystal 1	157.89 J/K/mol
325.96 K, Crystal 1	158.18 J/K/mol
327.48 K, Crystal 1	158.02 J/K/mol
328.97 K, Crystal 1	158.76 J/K/mol
330 K, Crystal 1	159.14 J/K/mol
330.46 K, Crystal 1	159.4 J/K/mol
331.95 K, Crystal 1	159.74 J/K/mol
333.42 K, Crystal 1	160.19 J/K/mol
334.89 K, Crystal 1	160.55 J/K/mol
